Assay results as given in BindingDB's records for doi:10.1016/j.bmcl.2008.12.079 (Gilead Sciences, 2009).

Target: T1, Gag-Pol polyprotein [1148-1435] (Human immunodeficiency virus 1, UniProt P04585)
T1 construct: 1148-1435
Assay: DNA Strand-Transfer Activity Assay
Settings: pH 7.3; 22 °C
Protocol: In the strand-transfer assay, the biotinylated donor DNA was bound to streptavidin-coated plates, and integrase was added to each well to allow processing of the donor DNA. Serially diluted compounds and DIG-tagged target DNA were then added to each well, and 3-end joining reaction was allowed to proceed for 30 min. Signal was detected using horseradishperoxidase-conjugated anti-Digoxin antibody through chemiluminescence measurement.

COc1c2c(c(O)c3ncc(Cc4ccc(F)cc4)cc13)C(=O)N(C)C2 [3-[(4-fluorophenyl)methyl]-9-hydroxy-5-methoxy-7-methyl-6H,7H,8H-pyrrolo[3,4-g]quinolin-8-one]
IC50: 100 nM
